Measurements: patent publication US10863753B2, “Iron-fortified tea preparations and methods of making same” (The Governing Council of the University of Toronto, priority 2015, dated 2020)
Several values for one entry are separate records, joined by “and”; a condition that tells them apart may be missing. Identical values can stand only once. Like-named read-outs stand apart in the source and are kept apart here.

Experiments:
[1] = Iron-polyphenol complex formation in brewed tea (spectrophotometry / colour); type: physicochemical
Procedure: Iron polyphenol complex was measured using spectrophotometry. 2 L of tea were freshly prepared and brewed for 5 minutes. Tea leaves were removed and the liquid was distributed into 6 beakers (250 ml each). A stock solution of ferric EDTA was prepared and increasing volumes were added to each beaker. The maximum UV and Visible light absorbance wavelength for the tea was determined Absorbance at this maximum absorbance wavelength was measured after 5, 20 and 60 minutes. […]
Complex formation was determined using spectrophotometry. […] The maximum UV and visible light wavelength absorbance for the iron-tea polyphenol complex was determined. The maximum absorbance was 580 nm at tea pH and fortified teas were measured after 5, 20 and 60 minutes.

[2] = type: physicochemical; conditions: for Precipitation in tea extract / Reduction of iron-polyphenol complex formation: tea extract 1 gGAE/L
Procedure: The tea extract was prepared using a solution of 50% by volume N,N-dimethylformamide (DMF) and 50% by volume reverse osmosis purified (RO) water with black tea leaves. […] Tea extract was diluted to the concentration of tea (1 gGAE/L) or to 1/10th of that concentration (0.1 gGAE/L) for use in these experiments and pH was controlled using hydrochloric acid and sodium hydroxide.
Iron complex formation was measured using spectrophotometry and analyzed by normalizing against ferrous sulfate in gallic acid (GA) at the phenolic concentration of tea. Therefore, 100% represents the peak absorbance of ferrous sulfate in a 1 g/L gallic acid solution at pH 5 or pH 7.

[3] = Complexation of iron in gallic acid solution (spectrophotometry); conditions: for Reduction of iron polyphenol complex formation: gallic acid; for Iron gallic acid complex: 0.3 mM iron
Procedure: To approximate brewed tea, a concentration of 1 g/L and pH 5 were used. Binding of iron was also tested at pH 7 to approximate the pH of the small intestine. Hydrochloric acid and sodium hydroxide were used to adjust and maintain the pH. […] Since the iron-gallate complex is coloured, spectrophotometry was used to quantify the complex formation.

[4] = test system: Caco-2 cells; test: Caco-2 cell transport, bioavailable fraction in basolateral chamber (Example 3)
Procedure: The digested liquid was diluted to half with buffer in order to ensure cells survival during the experiment, and the basolateral camera was filled with 2 ml of buffer. […] The liquid from the basolateral camera was collected and sent for iron analysis using AAS.

[5] = In vitro bioaccessibility, simulated pepsin and pancreatin/bile digestion (Example 3); type: in vitro ADME; conditions: in tea, no EDTA protection
[6] = iron source added to tea without EDTA protection
[7] = iron source with EDTA protection, molar ratio 1:2
[8] = target pH 5, tea extract 0.1 gGAE/L, 0.3 mM iron
[9] = target pH 7, tea extract 0.1 gGAE/L, 0.3 mM iron

Structure (SMILES) | Iron-polyphenol complex formation (colour) [1, 6] | Iron-polyphenol complex formation (colour) [1, 7] | Iron Complex (% FS in 1 g/L GA) [2, 8] [% FS in 1 g/L GA] | Iron Complex (% FS in 1 g/L GA) ([2]; target pH 5, tea extract 0.1 gGAE/L, 0.3 mM iron, listed as Ferric sodium EDTA) | Iron Complex (% FS in 1 g/L GA) ([2]; target pH 5, tea extract 1 gGAE/L, 0.3 mM iron) | Iron Complex (% FS in 1 g/L GA) [2, 9] [% FS in 1 g/L GA] | Iron Complex (% FS in 1 g/L GA) ([2]; target pH 7, tea extract 0.1 gGAE/L, 0.3 mM iron, listed as Ferric sodium EDTA) | Iron Complex (% FS in 1 g/L GA) ([2]; target pH 7, tea extract 1 gGAE/L, 0.3 mM iron) | Precipitation in tea extract [2] | Reduction of iron-polyphenol complex formation ([2]; pH 5) [%] | Reduction of iron-polyphenol complex formation ([2]; pH 7) [%] | Reduction of iron polyphenol complex formation ([3]; pH 5) | Reduction of iron polyphenol complex formation ([3]; pH 7) | Iron gallic acid complex ([3]; target pH 5, 1 g/L gallic acid) [%] | Iron gallic acid complex ([3]; target pH 7, 1 g/L gallic acid) [%] | Increased bioavailability with an excess of EDTA versus no protection ([4]; in fortified tea) [fold] | Bioavailability of iron ([4]; in tea, added without EDTA protection) | Bioaccessibility of iron [5] | Iron Complex (% FS in 1 g/L GA) ([2]; pH 5) | Iron Complex (% FS in 1 g/L GA) ([2]; pH 7)
O=C([O-])CN(CCN(CC(=O)[O-])CC(=O)[O-])CC(=O)[O-].[Fe+3].[Na+] [FeNaEDTA, ferric sodium EDTA] | complex was formed | effective in avoiding complex formation | 3.0 ± 0.2 | 3 | 4 ± 6 | 3.0 ± 0.7 | 3 | 70 ± 8 | not cause precipitation | 96 | 30 | 94%±3% | 93%±2% | 6.2 ± 0.2 | 7.0 ± 0.5 | – | – | – | – | –
O=C([O-])/C=C/C(=O)[O-].[Fe+2] [ferrous fumarate] | iron-polyphenol complex was formed instantaneously | effective in avoiding complex formation | 65 ± 2 | – | – | 66 ± 3 | – | – | precipitation occurs | – | – | – | – | 103 ± 3.0 | 110 ± 2.0 | 4 | 16% and 12% | – | – | –
O=S(=O)([O-])[O-].[Fe+2] [ferrous sulphate] | iron-polyphenol complex was formed instantaneously | effective in avoiding complex formation | – | – | – | – | – | – | – | – | – | – | – | 100 ± 3.0 | 100 ± 2.0 | – | – | lowest bioaccessibility | 72 ± 2 | 85 ± 1
